This is an account of results in patent publication US11932602B2, “Method for preparing nicotinamide mononucleotide cocrystal” (BONTAC BIO-ENGINEERING(SHENZHEN) CO., LTD, priority 2021, dated 2024).

The structures appear in SMILES notation.

For this series the following is noted: screened with a sieve (1.00 mm, No. 18), poured into glass graduated measuring cylinder, apparent volume. Here is the method:
The tops were scraped flat. The apparent volumes were recorded. The bulk densities were calculated.

With `NC(=O)c1ccc[n+]([C@@H]2O[C@H](COP(=O)([O-])O)[C@@H](O)[C@H]2O)c1` [Form 1, nicotinamide mononucleotide anhydrous crystal (form 1)], the Bulk density stood at 0.15 g/mL.
